Tests used:
[1] = tested on: morningglory; experiment: Test A pre-/postemergence herbicide test; assay type: in vivo, Ipomoea spp.
How it was run: (§1)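 Sandy loam soil given preemergence directed spray; plants at 2 to 10 cm, one- to two-leaf stage, sprayed to runoff postemergence, compounds in non-phytotoxic solvent with surfactant. Injury rated visually versus untreated controls after about ten greenhouse days, 0 (no effect) to 100 (complete control); dash means not tested.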

[2] = tested on: barnyardgrass; experiment: Test A pre-/postemergence herbicide test; assay type: in vivo, Echinochloa crus-galli
How it was run: as §1

[3] = tested on: velvetleaf; experiment: Test A pre-/postemergence herbicide test; assay type: in vivo, Abutilon theophrasti
How it was run: as §1

[4] = tested on: large crabgrass; experiment: Test A pre-/postemergence herbicide test; assay type: in vivo, Digitaria sanguinalis
How it was run: as §1

[5] = tested on: rice; experiment: Test B flooded paddy test; assay type: in vivo, Oryza sativa; settings: scale 0 to 100 (0 no effect, 100 complete control)
How it was run: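 Scale 0–100: zero equals no visible effect, 100 complete control, judged by eye relative to controls. Timing: 13 to 15 days in greenhouse post-treatment. Growth stage at spraying: two leaves (paddy) or one to four leaves, 2–18 cm (postemergence).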

[6] = tested on: redroot pigweed; experiment: Test A pre-/postemergence herbicide test; assay type: in vivo, Amaranthus retroflexus
How it was run: as §1

[7] = tested on: barnyardgrass; experiment: Test B flooded paddy test; assay type: in vivo, Echinochloa crus-galli; settings: scale 0 to 100 (0 no effect, 100 complete control)
How it was run: (§2)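 Paddy species grown to the 2-leaf stage under flooding; blackgrass sprayed postemergence at 2–18 cm (1- to 4-leaf stage). Plants kept in a greenhouse for 13 to 15 days, then visually rated against controls on 0 (no effect) to 100 (complete control).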

[8] = tested on: ducksalad; experiment: Test B flooded paddy test; assay type: in vivo, Heteranthera limosa; settings: scale 0 to 100 (0 no effect, 100 complete control)
How it was run: as §2

[9] = tested on: giant foxtail; experiment: Test A pre-/postemergence herbicide test; assay type: in vivo, Setaria faberi
How it was run: as §1

[10] = tested on: small flower umbrella sedge; experiment: Test B flooded paddy test; assay type: in vivo, Cyperus difformis; settings: scale 0 to 100 (0 no effect, 100 complete control)
How it was run: as §2

[11] = Postemergence, 125 g ai/ha, 0 to 100 scale, 0 no effect, 100 complete control
[12] = Postemergence, 500 g ai/ha, 0 to 100 scale, 0 no effect, 100 complete control
[13] = preemergence, 125 g ai/ha, visual injury, 0 to 100 scale (0 no effect, 100 complete control)
[14] = preemergence, 500 g ai/ha, visual injury, 0 to 100 scale (0 no effect, 100 complete control)

CCn1nc(C(C)(C)C)nc1C(=O)Nc1cccc(OC(F)(F)F)c1 [Compound 449]
Morningglory plant response rating [1, 11]: 5 | Morningglory plant response rating [1, 12]: 15 | Morningglory plant response rating [1, 13]: 0 | Morningglory plant response rating [1, 14]: 5 | Barnyardgrass plant response rating [2, 11]: 20 | Barnyardgrass plant response rating [2, 12]: 35 | Barnyardgrass plant response rating [2, 13]: 45 | Barnyardgrass plant response rating [2, 14]: 90 | Velvetleaf plant response rating [3, 11]: 10 | Velvetleaf plant response rating [3, 12]: 20 | Velvetleaf plant response rating [3, 13]: 0 | Velvetleaf plant response rating [3, 14]: 10 | Crabgrass, Large plant response rating [4, 11]: 20 | Crabgrass, Large plant response rating [4, 12]: 30 | Crabgrass, Large plant response rating [4, 13]: 35 | Crabgrass, Large plant response rating [4, 14]: 80 | Rice plant response rating ([5]; 125 g ai/ha): 10 | Rice plant response rating ([5]; 500 g ai/ha): 50 | Pigweed plant response rating [6, 11]: 20 | Pigweed plant response rating [6, 12]: 40 | Pigweed plant response rating [6, 13]: 0 | Pigweed plant response rating [6, 14]: 50 | Barnyardgrass plant response rating ([7]; 125 g ai/ha): 0 | Barnyardgrass plant response rating ([7]; 500 g ai/ha): 30 | Ducksalad plant response rating ([8]; 125 g ai/ha): 20 | Ducksalad plant response rating ([8]; 500 g ai/ha): 70 | Foxtail, Giant plant response rating [9, 11]: 20 | Foxtail, Giant plant response rating [9, 12]: 50 | Foxtail, Giant plant response rating [9, 13]: 60 | Foxtail, Giant plant response rating [9, 14]: 90 | Sedge, Umbrella plant response rating ([10]; 125 g ai/ha): 30 | Sedge, Umbrella plant response rating ([10]; 500 g ai/ha): 80

CCc1nn(C(C)(C)C)cc1C(=O)Nc1cc(C(=S)N(C)C)ccc1F [Compound 454]
Morningglory plant response rating [1, 11]: 10 | Morningglory plant response rating [1, 12]: 50 | Morningglory plant response rating [1, 13]: 0 | Morningglory plant response rating [1, 14]: 20 | Barnyardgrass plant response rating [2, 11]: 40 | Barnyardgrass plant response rating [2, 12]: 80 | Barnyardgrass plant response rating [2, 13]: 70 | Barnyardgrass plant response rating [2, 14]: 85 | Velvetleaf plant response rating [3, 11]: 50 | Velvetleaf plant response rating [3, 12]: 70 | Velvetleaf plant response rating [3, 13]: 0 | Velvetleaf plant response rating [3, 14]: 20 | Crabgrass, Large plant response rating [4, 11]: 10 | Crabgrass, Large plant response rating [4, 12]: 70 | Crabgrass, Large plant response rating [4, 13]: 50 | Crabgrass, Large plant response rating [4, 14]: 85 | Rice plant response rating ([5]; 125 g ai/ha): 60 | Rice plant response rating ([5]; 500 g ai/ha): 80 | Pigweed plant response rating [6, 11]: 40 | Pigweed plant response rating [6, 12]: 70 | Pigweed plant response rating [6, 13]: 20 | Pigweed plant response rating [6, 14]: 90 | Barnyardgrass plant response rating ([7]; 125 g ai/ha): 50 | Barnyardgrass plant response rating ([7]; 500 g ai/ha): 90 | Ducksalad plant response rating ([8]; 125 g ai/ha): 50 | Ducksalad plant response rating ([8]; 500 g ai/ha): 70 | Foxtail, Giant plant response rating [9, 11]: 20 | Foxtail, Giant plant response rating [9, 12]: 70 | Foxtail, Giant plant response rating [9, 13]: 10 | Foxtail, Giant plant response rating [9, 14]: 85 | Sedge, Umbrella plant response rating ([10]; 125 g ai/ha): 60 | Sedge, Umbrella plant response rating ([10]; 500 g ai/ha): 70

Source: patent US20060069132A1, “Azolecarboxamide herbicides” (priority 2004, published 2006)
